Measurements from US8404856B2, “Non-nucleoside reverse transcriptase inhibitors” (Merck Sharp & Dohme Corp., priority 2007, dated 2013).

What was measured:
[1] = target: HIV-1 RT enzyme (wild-type) (Human immunodeficiency virus type 1 group M subtype B, UniProt P04585); assay: ECL assay for inhibition of HIV reverse transcriptase (WT); format: biochemical; settings: wild-type HIV-1 RT; read-out: ECL Assay (WT) IC50
Protocol: (§1) 100 μL reaction mixtures were initiated with a combination of primer-template substrate (10 nM final concentration) and dNTPs (0.6 μM dNTPs, 1.25 μM BrdUTP). The heterodimeric nucleic acid substrate was generated by annealing the DNA primer pD500 (described in Shaw-Reid et al., J. Biol. Chem., 278: 2777-2780; obtained from Integrated DNA Technologies) to t500, a 500 nucleotide RNA template created by in vitro transcription (see Shaw-Reid et al., J. Biol. Chem., 278: 2777-2780). After 1 hour incubation at 37° C., reactions were quenched by 10 μL of 1 N NaOH. Microtiter plates were incubated for an additional 30 minutes at room temperature and then neutralized with 10 μL of 1 N HCl. A mixture of detection buffer containing ruthenylated anti-BrdU antibody and streptavidin coated magnetic beads were added to the plate and incubated at room temperature for 1.5 hours prior to quantification via electrochemiluminescence instrument.

[2] = target: T1, HIV reverse transcriptase with the K103N mutation (Human immunodeficiency virus type 1 group M subtype B, UniProt P04585, K690N); assay: ECL assay for inhibition of mutant HIV reverse transcriptase (K103N); format: biochemical, HIV-1; settings: K103N mutant RT; read-out: ECL Assay (K103N) IC50
T1 construct: made in house
Protocol: as §1
(§2) Analogous assays were conducted substituting mutant HIV strains to determine the […] inhibition of compounds of the present invention against mutant HIV reverse transcriptase. In one strain the reverse transcriptase has the Y181C mutation and in the other strain the reverse transcriptase has the K103N mutation. The mutations were generated with the […] site-directed mutagenesis kit (Stratagene).

[3] = target: T2, HIV reverse transcriptase with the Y181C mutation (Human immunodeficiency virus type 1 group M subtype B, UniProt P04585, Y768C); assay: ECL assay for inhibition of mutant HIV reverse transcriptase (Y181C); format: biochemical, HIV-1; settings: Y181C mutant RT; read-out: ECL Assay (Y181C) IC50
T2 construct: made in house
Protocol: as §1, §2

wild type HIV-1 = assay: Spread assay: inhibition of acute HIV-1 infection of T-lymphoid cells (WT); format: cell-based; settings: Human immunodeficiency virus 1, T-lymphoid; wild type HIV-1, 10% FBS; read-out: Spread (WT) CIC95 (10% FBS)
Protocol: (§3) Assays for the inhibition of acute HIV-1 infection of T-lymphoid cells (alternatively referred to herein as the “spread assay”) were conducted in accordance with Vacca, J. P. et al., Proc. Natl. Acad. Sci. USA 1994, 91: 4096. The assays tested for inhibition of wild type HIV-1 and of HIV strains containing the Y181C or K103N mutation. […] Table C also reports the CIC95 values of certain of the title compounds of Examples 1-25 obtained in the assays employing the Y181C mutant strain and the K103N mutant strain.

[4] = tested on: HIV strain containing the K103N mutation; assay: Spread assay: inhibition of acute HIV-1 infection of T-lymphoid cells (K103N); format: cell-based; settings: Human immunodeficiency virus 1, T-lymphoid, read-out: Spread (K103N) CIC95 (10% FBS)
Protocol: as §3

[5] = tested on: HIV strain containing the Y181C mutation; assay: Spread assay: inhibition of acute HIV-1 infection of T-lymphoid cells (Y181C); format: cell-based; settings: Human immunodeficiency virus 1, T-lymphoid, read-out: Spread (Y181C) CIC95 (10% FBS)
Protocol: as §3

T-lymphoid cells = format: cell-based
Protocol: Cytotoxicity was determined by microscopic examination of the cells in each well in the spread assay, wherein a trained analyst observed each culture for any of the following morphological changes as compared to the control cultures: pH imbalance, cell abnormality, cytostatic, cytopathic, or crystallization (i.e., the compound is not soluble or forms crystals in the well). The toxicity value assigned to a given compound is the lowest concentration of the compound at which one of the above changes is observed.

Row | Structure (SMILES) | IC50 [1] [nM] | IC50 [2] [nM] | IC50 [3] [nM] | IC95 (wild type HIV-1) [nM] | IC95 [4] [nM] | IC95 [5] [nM] | Cytotoxicity: no cytotoxicity at concentrations up to (T-lymphoid cells) [nM]
1 | N#Cc1cc(Cl)cc(Oc2c(Cl)c(Cl)cn(Cc3n[nH]c4ncccc34)c2=O)c1 [Compound 23-2, 3-chloro-5-{[4,5-dichloro-2-oxo-1-(1H-pyrazolo[3,4-b]pyridin-3-ylmethyl)-1,2-dihydropyridin-3-yl]oxy}benzonitrile] | 0.96 | 1.6 | 1.3 | 5 | 11 | 15 | > 833
2 | N#Cc1cc(Cl)cc(Oc2cc(Cc3n[nH]c4ncccc34)[nH]c(=O)c2Cl)c1 [Compound 24-7, 3-Chloro-5-{[3-chloro-2-oxo-6-(1H-pyrazolo[3,4-b]pyridin-3-ylmethyl)-1,2-dihydropyridin-4-yl]oxy}benzonitrile] | 0.9 | 1.7 | 1 | 2.4 | 13 | 6.6 | > 833
